We go through 4 compounds from ChEMBL document CHEMBL4190311, “Discovery of cycloalkyl-fused N-thiazol-2-yl-benzamides as tissue non-specific glucokinase activators: Design, synthesis, and biological evaluation” (Eur J Med Chem, 2017).

Each structure is given as a SMILES string. Active and inactive are the calls of the source. The calls are words filed in the database; no cut-off is given here.

Data set [1] has as its target T1, Hexokinase-4 (Homo sapiens, UniProt P35557).
T1 sequence (P35557 whole entry): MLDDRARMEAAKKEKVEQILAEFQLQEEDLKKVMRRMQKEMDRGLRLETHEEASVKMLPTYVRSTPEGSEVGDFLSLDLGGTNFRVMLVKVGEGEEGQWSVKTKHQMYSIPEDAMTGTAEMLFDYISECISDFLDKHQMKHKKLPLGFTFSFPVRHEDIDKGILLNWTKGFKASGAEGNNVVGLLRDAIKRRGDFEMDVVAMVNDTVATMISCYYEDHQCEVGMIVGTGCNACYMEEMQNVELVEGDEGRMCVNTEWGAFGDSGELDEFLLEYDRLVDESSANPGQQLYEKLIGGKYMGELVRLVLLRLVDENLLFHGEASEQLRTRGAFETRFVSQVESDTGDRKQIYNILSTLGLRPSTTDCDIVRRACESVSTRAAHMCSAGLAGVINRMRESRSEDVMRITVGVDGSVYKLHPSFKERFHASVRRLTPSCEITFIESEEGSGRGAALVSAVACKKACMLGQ
Kind of data set: Activation of recombinant human liver glucokinase 2 assessed as […] in presence of 5 mM glucose by G6PDH coupled assay.

Another data set concerns Hepatocyte. Kind of data set: Increase in glucose uptake in mouse primary hepatocytes assessed as glucose uptake level at 20 uM after 24 hrs by glucose oxidase method relative to control. It counts as functional.
Data set [2] concerns the target T2, Hexokinase-4 (Rattus norvegicus) (UniProt P17712).
T2 sequence (whole entry): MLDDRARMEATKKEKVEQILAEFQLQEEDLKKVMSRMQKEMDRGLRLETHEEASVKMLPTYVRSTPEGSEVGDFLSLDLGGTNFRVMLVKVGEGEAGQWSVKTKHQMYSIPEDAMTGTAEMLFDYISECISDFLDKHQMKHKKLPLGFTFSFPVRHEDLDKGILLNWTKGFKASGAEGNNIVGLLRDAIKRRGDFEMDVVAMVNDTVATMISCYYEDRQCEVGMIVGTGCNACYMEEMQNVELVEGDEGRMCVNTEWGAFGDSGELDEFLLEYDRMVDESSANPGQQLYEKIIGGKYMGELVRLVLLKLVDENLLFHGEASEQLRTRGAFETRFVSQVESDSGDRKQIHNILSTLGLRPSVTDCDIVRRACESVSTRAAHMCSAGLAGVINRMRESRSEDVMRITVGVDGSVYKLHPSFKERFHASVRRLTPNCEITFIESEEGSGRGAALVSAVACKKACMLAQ
Kind of data set: Activation of glucokinase in rat INS1(832/13) cells assessed as increase in glucose sensitive insulin secretion at 20 uM after 2 hrs in presence of 5.5 mM glucose by AlphaLISA method relative to control. It counts as cell-based. On the technique in general: Bead proximity is the source of the signal in Alpha formats.

The subject of data set [3] is INS1(832/13). The data set is described as follows: Cytoprotection in rat INS1(832/13) cells assessed as reduction in streptozocin induced beta cells apoptosis after 20 hrs by MTT based spectrophotometric method. The settings on record: INS-1 832/13, 20 h. It counts as functional, cell-based. In general terms: Tetrazolium assays rely on reduction of a dye to a coloured formazan, in cell work by metabolically active cells.

The subject of data set [4] is INS1(832/13). Kind of data set: Cytoprotection in rat INS1(832/13) cells assessed as reduction in streptozocin induced beta cells apoptosis after 20 hrs by MTT based spectrophotometric method relative to control. The data set is classed as functional. Details: scale not given: the % may be the effect or the level left.
For data set [5], the target named is T1, Hexokinase-4. Kind of data set: Activation of recombinant human liver glucokinase 2 assessed as assessed as reduction in Km for glucose in presence of 5 mM glucose by G6PDH coupled assay.
A short description of data set [6]: AUC (0 to infinity) in Sprague-Dawley rat at 10 mg/kg, po by LC-MS/MS analysis. It counts as ADME, organism-based. Details: dose 10 mg/kg, time infinity, route oral. Conditions: in vivo.
Data set [7] is described as follows: Half life in Sprague-Dawley rat at 10 mg/kg, po by LC-MS/MS analysis. The data set is classed as ADME, organism-based. Conditions: in vivo.
A short description of data set [8]: Tmax in Sprague-Dawley rat at 10 mg/kg, po by LC-MS/MS analysis. It counts as ADME, organism-based. The settings on record: in vivo.
For data set [9], the system named is Mus musculus. Kind of data set: Antidiabetic activity in po dosed db/db mouse BKS.Cg-Dock7m+/+ Leprdb/J assessed as reduction in glucose excursion administered daily for 5 weeks measured up to 120 mins after over night fasting at fourth week by OGTT method. It counts as functional, organism-based.
The test system of data set [10] is Mus musculus. The data set is described as follows: Antidiabetic activity in dosed db/db mouse BKS.Cg-Dock7m+/+ Leprdb/J assessed as reduction in glucose AUC level at 30 to 60 mg/kg/day, po for 5 weeks measured up to 120 mins after over night fasting at fourth week during OGTT method. The data set is classed as functional, organism-based.
Data set [11] has as its system Mus musculus. The data set is described as follows: Toxicity in db/db mouse BKS.Cg-Dock7m+/+ Leprdb/J assessed as dyslipidemia by measuring effect on cholesterol level at 15 to 60 mg/kg, po administered daily for 5 weeks. It counts as organism-based. The settings on record: in vivo, 840 h.
The subject of data set [12] is Mus musculus. Kind of data set: Toxicity in db/db mouse BKS.Cg-Dock7m+/+ Leprdb/J assessed as dyslipidemia by measuring effect on high density lipoprotein-cholesterol level at 15 to 60 mg/kg, po administered daily for 5 weeks. The data set is classed as organism-based. The settings on record: in vivo, 840 h.
Data set [13] deals with Mus musculus. Kind of data set: Toxicity in db/db mouse BKS.Cg-Dock7m+/+ Leprdb/J assessed as dyslipidemia by measuring effect on low density lipoprotein-cholesterol level at 15 to 60 mg/kg, po administered daily for 5 weeks. Conditions: in vivo, 840 h. It counts as organism-based.
Data set [14] relates to Mus musculus. The data set is described as follows: Toxicity in C57BL/6J mouse assessed as decrease in fasting blood glucose level at 200 mg/kg, po administered as single dose measured over 6 hrs. The data set is classed as organism-based. The settings on record: in vivo.
Data set [15] has as its system Mus musculus. The data set is described as follows: Antidiabetic activity in db/db mouse BKS.Cg-Dock7m+/+ Leprdb/J assessed as reduction in HbA1c level at 15 to 60 mg/kg/day, po for 5 weeks. It counts as functional, organism-based.
The test system of data set [16] is Mus musculus. The data set is described as follows: Antidiabetic activity in db/db mouse BKS.Cg-Dock7m+/+ Leprdb/J assessed as reduction in fasting plasma glucose level at 15 to 60 mg/kg/day, po for 5 weeks. The data set is classed as functional, organism-based.

What is called EC50 is the concentration at which the effect is half-maximal. Consider `COCC(C)Oc1cc(Oc2ccc(C(=O)N3CCC3)cc2)cc(C(=O)Nc2nc3c(s2)CN(C(=O)OC(C)(C)C)CC3)c1` (stereo unspecified), for which the concentration for a half-maximal effect (EC50) on Hexokinase-4 [1] was 290 nM; with INS1(832/13) [3], 680 nM; on Hexokinase-4 [5] it was 150 nM. The Activity in the data set with Hepatocyte is given as 33%; in the data set with INS1(832/13) [4] it was 180%. In [2], the fold change (FC) came out at 2.29.
Consider `Cc1cnc(NC(=O)c2cc(Oc3cnc(C(=O)N(C)C)nc3)c3cc(C)oc3c2)cn1` [NERIGLIATIN], for which the 50% effective concentration (EC50) with INS1(832/13) [3] was 2150 nM. In addition, the Activity with INS1(832/13) [4] came to 114%.
Turning to `COCC(C)Oc1cc(Oc2ccc(S(C)(=O)=O)cc2)cc(C(=O)Nc2nc3c(s2)CCCC3)c1` (stereo unspecified), the EC50 on Hexokinase-4 [1] is 890 nM; in the data set on INS1(832/13) [3], 700 nM; at Hexokinase-4 [5], 30 nM. The Activity was found to be 31% with Hepatocyte and 66% with INS1(832/13) [4]. The “fold change (FC)” value in [2] is “inactive”.
Broadly, the AUC(0-inf) is the area under the concentration-time curve extrapolated to infinity. By half-life is commonly meant how long it takes for the measured level to halve. As a reminder, the Tmax is the time at which the peak concentration occurs. Turning to `COC[C@H](C)Oc1cc(Oc2ccc(C(=O)N3CCC3)cc2)cc(C(=O)Nc2nc3c(s2)CN(C(=O)OC(C)(C)C)CC3)c1`, the 50% effective concentration (EC50) at Hexokinase-4 [1] was 160 nM; with INS1(832/13) [3] it was 490 nM; on Hexokinase-4 [5] it was 50 nM. Besides, the Activity in the data set on Hepatocyte was 15%; in the data set on INS1(832/13) [4], 161%; with Mus musculus [9] it was “Dose-dependent effect”; in the data set with Mus musculus [11] it was “Non-Toxic”; in the data set with Mus musculus [12] it was “Non-Toxic”; in the data set on Mus musculus [13], “Non-Toxic”. Besides, the Activity entry in the data set on Mus musculus [14] is “Non-Toxic”. The fold change (FC) in [2] was 2.69. This compound also came in with a total exposure AUC(0-inf) in data set [6] of 7580 ng·h/mL. This compound also showed a half-life in data set [7] of 30 min. In data set [8], the time to peak (Tmax) worked out at 34.8 min. In addition, the result in the data set on Mus musculus [10], in the data set with Mus musculus [15] and in the data set on Mus musculus [16] was Active.
